How the values were obtained:
Assay in all cases: Kinase assay, binding constants (Kd), kinase-tagged T7 phage, qPCR
FGFR2 = FGFR2 (Homo sapiens (Human), UniProt P21802)
Summary of the method: (§1)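 Competition binding: kinase-tagged T7 phage lysates mixed with immobilized biotinylated ligand on streptavidin beads plus compound (11-point 3-fold dilution series, 0.9% DMSO final). Bound kinase eluted with free ligand and quantified by qPCR. Kd from Hill equation fit, slope fixed at −1.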

FGFR3 = FGFR3 (Homo sapiens (Human), UniProt P22607)
FGFR3, sequence (P22607 23-806): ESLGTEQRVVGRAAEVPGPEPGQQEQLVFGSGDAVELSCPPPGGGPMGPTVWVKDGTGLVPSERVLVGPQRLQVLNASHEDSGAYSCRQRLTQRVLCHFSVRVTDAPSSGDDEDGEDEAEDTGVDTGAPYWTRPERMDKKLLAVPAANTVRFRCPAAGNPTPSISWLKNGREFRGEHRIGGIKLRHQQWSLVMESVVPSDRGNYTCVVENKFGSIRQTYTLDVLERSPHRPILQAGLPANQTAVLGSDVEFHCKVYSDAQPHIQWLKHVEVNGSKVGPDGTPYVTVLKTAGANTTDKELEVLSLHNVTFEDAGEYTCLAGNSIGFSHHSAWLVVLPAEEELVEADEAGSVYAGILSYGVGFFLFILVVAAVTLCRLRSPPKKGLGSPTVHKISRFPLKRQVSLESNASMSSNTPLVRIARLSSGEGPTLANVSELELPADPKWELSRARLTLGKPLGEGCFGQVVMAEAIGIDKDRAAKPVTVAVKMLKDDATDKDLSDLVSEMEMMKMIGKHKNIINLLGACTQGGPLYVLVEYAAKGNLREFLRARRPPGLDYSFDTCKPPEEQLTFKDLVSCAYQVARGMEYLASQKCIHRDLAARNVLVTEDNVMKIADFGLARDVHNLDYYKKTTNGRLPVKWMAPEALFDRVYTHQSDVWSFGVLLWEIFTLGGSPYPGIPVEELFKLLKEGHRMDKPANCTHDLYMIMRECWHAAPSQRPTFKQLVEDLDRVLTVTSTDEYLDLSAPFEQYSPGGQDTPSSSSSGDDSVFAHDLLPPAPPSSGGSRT
Summary of the method: as §1

FGFR4 = FGFR4 (Homo sapiens (Human), UniProt P22455)
FGFR4, sequence (P22455 22-802): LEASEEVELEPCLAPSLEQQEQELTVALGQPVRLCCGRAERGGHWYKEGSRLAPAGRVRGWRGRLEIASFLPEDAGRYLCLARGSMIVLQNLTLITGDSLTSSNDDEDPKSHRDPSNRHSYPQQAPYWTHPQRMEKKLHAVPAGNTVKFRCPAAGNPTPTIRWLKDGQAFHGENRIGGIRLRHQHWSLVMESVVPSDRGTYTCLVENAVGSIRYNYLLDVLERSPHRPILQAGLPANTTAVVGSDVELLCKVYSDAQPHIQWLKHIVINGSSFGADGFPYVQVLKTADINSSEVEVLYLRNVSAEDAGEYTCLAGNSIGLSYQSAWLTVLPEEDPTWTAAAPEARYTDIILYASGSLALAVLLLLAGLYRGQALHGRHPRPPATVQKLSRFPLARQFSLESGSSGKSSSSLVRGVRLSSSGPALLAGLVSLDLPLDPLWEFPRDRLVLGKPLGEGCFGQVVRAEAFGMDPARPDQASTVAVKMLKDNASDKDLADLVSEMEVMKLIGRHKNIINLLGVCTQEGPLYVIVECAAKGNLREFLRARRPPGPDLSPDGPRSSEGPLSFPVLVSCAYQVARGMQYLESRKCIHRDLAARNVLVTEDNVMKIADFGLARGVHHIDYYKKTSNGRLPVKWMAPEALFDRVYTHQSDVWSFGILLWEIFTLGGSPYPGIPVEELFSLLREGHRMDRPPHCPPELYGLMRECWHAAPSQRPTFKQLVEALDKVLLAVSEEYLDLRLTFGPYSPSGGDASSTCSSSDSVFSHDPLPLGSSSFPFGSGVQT
Summary of the method: as §1

FGFR1 = FGFR1 (Homo sapiens (Human), UniProt P11362)
FGFR1, sequence (P11362 22-822): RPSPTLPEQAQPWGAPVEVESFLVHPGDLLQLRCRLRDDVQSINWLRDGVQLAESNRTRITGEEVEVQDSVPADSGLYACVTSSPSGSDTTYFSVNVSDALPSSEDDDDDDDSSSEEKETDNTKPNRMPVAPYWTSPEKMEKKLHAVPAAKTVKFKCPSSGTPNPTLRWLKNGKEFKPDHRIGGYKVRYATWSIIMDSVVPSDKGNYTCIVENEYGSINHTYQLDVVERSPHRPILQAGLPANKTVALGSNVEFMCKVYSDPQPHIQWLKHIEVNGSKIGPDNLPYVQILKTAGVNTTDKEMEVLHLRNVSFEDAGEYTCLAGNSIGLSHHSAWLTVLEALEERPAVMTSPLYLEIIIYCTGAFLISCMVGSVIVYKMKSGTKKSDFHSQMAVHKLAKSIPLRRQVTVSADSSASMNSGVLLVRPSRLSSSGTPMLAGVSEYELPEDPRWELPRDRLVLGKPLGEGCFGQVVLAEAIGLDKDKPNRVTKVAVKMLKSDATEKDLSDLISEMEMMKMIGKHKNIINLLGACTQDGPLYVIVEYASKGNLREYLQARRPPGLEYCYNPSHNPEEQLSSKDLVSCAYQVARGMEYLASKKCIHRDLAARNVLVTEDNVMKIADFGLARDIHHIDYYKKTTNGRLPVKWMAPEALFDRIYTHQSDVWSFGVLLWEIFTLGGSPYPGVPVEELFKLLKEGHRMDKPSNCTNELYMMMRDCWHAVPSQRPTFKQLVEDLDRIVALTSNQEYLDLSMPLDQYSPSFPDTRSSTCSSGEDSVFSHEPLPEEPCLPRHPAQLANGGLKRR
Summary of the method: as §1

FGFR3 (V555M) = FGFR3 (V555M) (Homo sapiens (Human), UniProt P22607, V555M); conditions: V555M mutant
FGFR3 (V555M), sequence (P22607 23-806 V555M): as the sequence (P22607 23-806) above, with V533M counted along it
Summary of the method: as §1

FGFR2, sequence (P21802 22-821): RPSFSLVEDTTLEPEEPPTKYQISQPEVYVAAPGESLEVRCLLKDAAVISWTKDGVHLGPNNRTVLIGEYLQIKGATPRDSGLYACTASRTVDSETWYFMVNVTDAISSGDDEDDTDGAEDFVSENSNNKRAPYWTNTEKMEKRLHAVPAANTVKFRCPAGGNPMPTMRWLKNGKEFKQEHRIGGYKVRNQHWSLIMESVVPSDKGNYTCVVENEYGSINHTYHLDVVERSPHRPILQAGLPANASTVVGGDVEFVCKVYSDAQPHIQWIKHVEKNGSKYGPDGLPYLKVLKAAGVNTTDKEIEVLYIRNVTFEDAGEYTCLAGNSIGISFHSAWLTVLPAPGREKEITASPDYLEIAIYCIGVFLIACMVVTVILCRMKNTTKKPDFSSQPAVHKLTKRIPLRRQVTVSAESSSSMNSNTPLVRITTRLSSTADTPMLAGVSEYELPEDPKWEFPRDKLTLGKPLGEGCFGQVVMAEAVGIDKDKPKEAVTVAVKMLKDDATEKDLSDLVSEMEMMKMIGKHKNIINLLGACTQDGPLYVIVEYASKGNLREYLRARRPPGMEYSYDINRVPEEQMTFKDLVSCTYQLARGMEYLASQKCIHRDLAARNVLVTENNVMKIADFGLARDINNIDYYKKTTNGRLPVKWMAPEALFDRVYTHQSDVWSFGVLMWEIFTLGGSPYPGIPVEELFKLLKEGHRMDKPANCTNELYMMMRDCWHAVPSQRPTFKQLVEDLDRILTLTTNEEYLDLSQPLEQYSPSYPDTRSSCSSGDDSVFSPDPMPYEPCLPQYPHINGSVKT

Row | Kd (FGFR2) [nM] | Kd (FGFR3) [nM] | Kd (FGFR4) [nM] | Kd (FGFR1) [nM] | Kd (FGFR3 (V555M)) [nM] | Compound
1 | 1 to 20 | 1 to 20 | 1 to 20 | 20 to 100 | 1 to 20 | COc1cc2[nH]nc(-c3cnc(N4CC[C@@H](C(C)(C)O)C4)c(C#N)c3)c2cc1O[C@H](C)c1c(C)cnnc1C [Example 321, 5-(5-((R)-1-(3,5-dimethylpyridazin-4-yl)ethoxy)-6-methoxy-1H-indazol-3-yl)-2-((R)-3-(2-hydroxypropan-2-yl)pyrrolidin-1-yl)nicotinonitrile]
2 | 20 to 100 | 20 to 100 | 1 to 20 | 100 to 300 | 1 to 20 | COc1cc2[nH]nc(-c3cnc(N4CCC4)c(C#N)c3)c2cc1O[C@H](C)c1c(C)cnnc1C [Example 322, (R)-2-(azetidin-1-yl)-5-(5-(1-(3,5-dimethylpyridazin-4-yl)ethoxy)-6-methoxy-1H-indazol-3-yl)nicotinonitrile]
3 | 20 to 100 | 20 to 100 | 1 to 20 | 20 to 100 | 1 to 20 | COc1cc2[nH]nc(-c3cnc(N4CC5(COC5)C4)c(C#N)c3)c2cc1O[C@H](C)c1c(C)cnnc1C [Example 324, (R)-5-(5-(1-(3,5-dimethylpyridazin-4-yl)ethoxy)-6-methoxy-1H-indazol-3-yl)-2-(2-oxa-6-azaspiro[3.3]heptan-6-yl)nicotinonitrile]
4 | 1 to 20 | 1 to 20 | 1 to 20 | 20 to 100 | 1 to 20 | Cc1cnnc(C)c1[C@@H](C)Oc1ccc2[nH]nc(-c3cnc(N4CCN5C(=O)NCC5C4)c(C#N)c3)c2c1 (stereo partly drawn) [Example 325, 5-(5-((R)-1-(3,5-dimethylpyridazin-4-yl)ethoxy)-1H-indazol-3-yl)-2-(3-oxohexahydroimidazo[1,5-a]pyrazin-7(1H)-yl)nicotinonitrile]
5 | 20 to 100 | 1 to 20 | 1 to 20 | 20 to 100 | 1 to 20 | COc1cc2[nH]nc(-c3cnc(N4CC(O)C4)c(C#N)c3)c2cc1O[C@H](C)c1c(Cl)cncc1Cl [Example 326, 5-[5-[(1R)-1-(3,5-dichloro-4-pyridyl)ethoxy]-6-methoxy-1H-indazol-3-yl]-2-(3-hydroxyazetidin-1-yl)pyridine-3-carbonitrile]
6 | 1 to 20 | 1 to 20 | 1 to 20 | 1 to 20 | 1 to 20 | COc1cc2[nH]nc(-c3cnc(N4CC[C@H](O)C4)c(C#N)c3)c2cc1O[C@H](C)c1c(Cl)cncc1Cl [Example 327, 5-[5-[(1R)-1-(3,5-dichloro-4-pyridyl)ethoxy]-6-methoxy-1H-indazol-3-yl]-2-[(3S)-3-hydroxypyrrolidin-1-yl]pyridine-3-carbonitrile]
7 | 100 to 300 | 100 to 300 | 1 to 20 | 100 to 300 | 20 to 100 | COc1cc(-c2n[nH]c3ccc(O[C@H](C)c4c(C)cnnc4C)cc23)cnc1N1CCN2C(=O)NCC2C1 (stereo partly drawn) [Example 328, 7-(5-(5-((R)-1-(3,5-dimethylpyridazin-4-yl)ethoxy)-1H-indazol-3-yl)-3-methoxypyridin-2-yl)hexahydroimidazo[1,5-a]pyrazin-3(2H)-one]
8 | > 300 | 20 to 100 | 1 to 20 | 100 to 300 | 1 to 20 | C[C@@H](Oc1ccc2[nH]nc(-c3cnc(N4CC5(CN(CC(F)(F)F)C5)C4)c(C#N)c3)c2c1)c1c(Cl)cncc1Cl [Example 329, (R)-5-(5-(1-(3,5-dichloropyridin-4-yl)ethoxy)-1H-indazol-3-yl)-2-(6-(2,2,2-trifluoroethyl)-2,6-diazaspiro[3.3]heptan-2-yl)nicotinonitrile]

Row | Compound | Kd (FGFR2) [nM] | Kd (FGFR3) [nM] | Kd (FGFR4) [nM] | Kd (FGFR1) [nM] | Kd (FGFR3 (V555M)) [nM]
9 | COc1cc(-c2n[nH]c3ccc(O[C@H](C)c4c(C)cnnc4C)cc23)cnc1N1CC2CC(C1)N2CC(C)(C)O [Example 323, 1-(3-(5-(5-((R)-1-(3,5-dimethylpyridazin-4-yl)ethoxy)-1H-indazol-3-yl)-3-methoxypyridin-2-yl)-3,6-diazabicyclo[3.1.1]heptan-6-yl)-2-methylpropan-2-ol] | > 300 | > 300 | 1 to 20 | > 300 | 20 to 100
